{"source": "paper PMC7072329", "about": "“Discovery of Kynurenines Containing Oligopeptides as Potent Opioid Receptor Agonists” (Biomolecules, 2020)", "key": {"CD-1 male mice": {"test_system": "CD-1 male mice", "test": "tail flick test", "type": "in vivo", "conditions": "i.c.v., 10 μg/10 μL, 15 to 120 min", "method": "In our experiments, we used CD-1 male mice (Harlan, Italy, 25–30 g) maintained in colony, housed in cages (7 mice per cage) under standard light/dark cycle (from 7:00 a.m. to 7:00 p.m.), temperature (21 ± 1 °C) and relative humidity (60% ± 10%) for at least 1 week. Food and water were available ad libitum. The Service for Biotechnology and Animal Welfare of the Istituto Superiore di Sanità and the Italian Ministry of Health authorized the experimental protocol according to Legislative Decree 26/14.\nDMSO was purchased from Merck (Rome, Italy). Peptides solutions were freshly prepared using saline containing 0.9% NaCl and DMSO in the ratio DMSO/saline 1:5 v/v every experimental day. […]\nThe tail flick latency was obtained using a commercial unit (Ugo Basile, Gemonio, Italy), consisting of an infrared radiant light source (100 W, 15 V bulb) focused onto a photocell utilizing an aluminum parabolic mirror. […] Radiant heat was focused 3–4 cm from the tip of the tail, and the latency (s) of the tail withdrawal to the thermal stimulus was recorded. […] The baseline latency was calculated as mean of three readings recorded before testing at intervals of 15 min and the time course of latency determined at 15, 30, 45, 60, 90, and 120 min after treatment. […]\nExperimental data were expressed as mean ± s.e.m. […]"}, "G-protein [1]": {"target": "G-protein", "test": "functional [35S]GTPγS binding, rat brain membrane homogenates", "type": "biochemical", "method": "(§1) Rats and guinea pigs were decapitated, and their brains were quickly removed. The brains were used for membrane preparation following the procedure reported by Benyhe for binding and [^35S]GTPγS binding experiments, in agreement with the protocol of Zádor et al..\n(§2) Homogenization of brains was performed in 30 volumes (v/w) of ice-cold 50 mM Tris-HCl pH 7.4 buffer with a Teflon-glass Braun homogenizer at 1500 rpm. The centrifuge was settled at 18,000 rpm for 20 min at 4 °C, the resulting supernatant discarded, and the pellet taken up in the original volume of Tris-HCl buffer. Incubation of homogenate at 37 °C for 30 min was performed in a shaking water-bath. Five volumes of 50 mM Tris-HCl pH 7.4 buffer were used to suspend the final pellet at −80 °C. For the [^35S]GTPγS binding experiments, the brains were homogenized with a Dounce in 5 volumes (v/w) of ice-cold TEM (Tris-HCl, EGTA, MgCl2) at −80 °C. The protein content of the membrane preparation was determined by the method of Bradford, BSA being used as a standard.\n(§3) The functional [^35S]GTPγS binding experiments were performed as previously described. Briefly the membrane homogenates were incubated at 30 °C for 60 min in Tris-EGTA buffer (pH 7.4) composed of 50 mM Tris-HCl, 1 mM EGTA, 3 mM MgCl2, 100 mM NaCl, containing 20 MBq/0.05 cm^3 [^35S]GTPγS (0.05 nM) and increasing concentrations (10^−10 to 10^−5 M) of ligands. The experiments were performed in the presence of excess GDP (30 μM) in a final volume of 1 mL. Total binding was measured in the absence of test compounds, non-specific binding was determined in the presence of 10 μM unlabeled GTPγS. The reaction was terminated by rapid filtration under vacuum and washed three times with 5 mL ice-cold 50 mM Tris-HCl (pH 7.4) buffer through Whatman GF/B glass fibers. The radioactivity of the filters was detected in an UltimaGold^TM MV aqueous scintillation cocktail with a Packard Tricarb 2300TR liquid scintillation counter.\n(§4) Experimental data are presented as means ± S.E.M. Sigmoid dose-response curves were fitted with GraphPad Prism 5.0 (GraphPad Prism Software Inc., San Diego, CA, USA). An unpaired t-test with two-tailed p value was performed to determine the significance level. In the competition binding assays, the ‘One site competition’ fitting was used to establish the equilibrium binding affinity (Ki value).\n[35S]GTPγS binding assay in rat brain membrane homogenates. Figure S2 represents the specific binding of [35S]GTPγS in percentage in presence of increasing concentrations (10-10 - 10^-5 M) of the indicated ligands. “Total” on the x-axis indicates the basal activity of the monitored G-protein, which is measured in the absence of the ligands and represents the total specific binding of [35S]GTPγS. The level of basal activity was defined as 100% and it is presented with a dotted line. Points represent means ± S.E.M. for at least three experiments […]\n(§5) Figure S3. The effect of novel oligopeptides on G-protein activity in [35S]GTPγS binding assays in the absence or presence of the selective MOR antagonist cyprodime (Cyp) and the selective DOR antagonist naltrindole (NTI) in rat brain membrane homogenates (Figure A) and the selective KOR antagonist norbinaltorphine (nor-BNI) in guinea pig brain membrane homogenates (Figure B). The level of basal activity was defined as 100% and it is presented with a dotted line. Points represent means ± S.E.M. for at least three experiments performed"}, "G-protein [2]": {"test_system": "G-protein", "test": "functional [35S]GTPγS binding, guinea pig brain membrane homogenates", "type": "biochemical", "conditions": "ligand alone", "method": "as §1, §2, §3, §4\nas §5, with “The level of basal activity was defined as 100% and it is presented with a dotted line. Points represent means ± S.E.M. for at least three experiments performed” left out"}}, "note": "Where “and” joins values, the source holds several entries; their conditions need not be identical. Equal values may be shown once. Where a SMILES comes first, the peptide text is derived from it. [ ]: non-standard residue; d: D form. Kyn = Nc1ccccc1C(=O)C[C@H](N)C(=O)O", "data": [{"smiles": "C[C@@H](NC(=O)[C@@H](N)Cc1ccc(O)cc1)C(=O)NCC(=O)N[C@@H](Cc1ccccc1)C(=O)N[C@@H](CC(=O)c1ccccc1N)C(N)=O", "note": "[Peptide K6] (H-Y[dA]GF[Kyn]-NH2)", "values": [{"measurement": "effect on time of response to thermal nociceptive stimuli (tail flick)", "setting": "CD-1 male mice", "value": "greatly increase the time of response to thermal nociceptive stimuli"}, {"measurement": "Potency Log EC50 ± S.E.M.", "setting": "G-protein [1]; dose-response curves", "value": "−5.984 ± 0.054"}, {"measurement": "Maximal Stimulation (Efficacy) Emax ± S.E.M.", "setting": "G-protein [1]; dose-response curves, basal = 100%", "value": "209.7 ± 3.4", "unit": "%"}, {"measurement": "Emax + S.E.M., Ligand", "setting": "G-protein [1]; ligand alone, bar graphs Figure S3", "value": "211% and 211.7 ± 3.1%"}, {"measurement": "Emax + S.E.M., Ligand", "setting": "G-protein [2]", "value": "139.8 ± 2.3", "unit": "%"}]}]}
